Laboratory results as given in publication PMC11277439, “The role of lysosomal phospholipase A2 in the catabolism of bis(monoacylglycerol)phosphate and association with phospholipidosis” (Journal of Lipid Research, 2024).

Biological target: T1, recombinant human LPLA2 (hLPLA2) (Homo sapiens, UniProt Q8NCC3)
T1 construct: gene PLA2G15; recombinant human enzyme from Proteos
T1 sequence (Q8NCC3 34-412): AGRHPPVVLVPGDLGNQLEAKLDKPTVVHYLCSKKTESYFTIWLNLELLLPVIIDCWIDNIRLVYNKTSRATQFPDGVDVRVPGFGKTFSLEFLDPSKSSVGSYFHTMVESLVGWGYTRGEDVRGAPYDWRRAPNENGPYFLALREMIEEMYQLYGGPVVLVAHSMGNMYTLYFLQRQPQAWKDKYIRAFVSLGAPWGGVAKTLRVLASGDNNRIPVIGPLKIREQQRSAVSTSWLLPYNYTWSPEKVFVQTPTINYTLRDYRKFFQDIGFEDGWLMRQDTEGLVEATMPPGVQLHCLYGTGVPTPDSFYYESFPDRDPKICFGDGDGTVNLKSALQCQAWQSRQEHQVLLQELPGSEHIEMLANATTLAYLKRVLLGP
Assay: oleic acid release from liposomes, HPTLC
Assay type: biochemical
Conditions: DODPC/S,S-(3,3′,C18:1)-BMP liposomes (2.3:1), 50 mM sodium acetate pH 4.5, 37°C, 5 min pre-incubation of drug with liposomes; read-out: Lipase Inhibition IC50 μM (BMP)^g
Source text: oleic acid release from liposomes, HPTLC on recombinant human LPLA2 (hLPLA2)

| Compound | IC50 [µM] |
| --- | --- |
| CC[C@H](NC(=O)c1c(C)c(-c2ccccc2)nc2ccccc12)c1ccccc1 [SB222200, 3-methyl-2-phenyl-N-[(1S)-1-phenylpropyl]quinoline-4-carboxamide] | 28.7 |
| CCCCc1oc2ccccc2c1C(=O)c1cc(I)c(OCCN(CC)CC)c(I)c1 [amiodarone, (2-butyl-1-benzofuran-3-yl)-[4-[2-(diethylamino)ethoxy]-3,5-diiodophenyl]methanone] | 18 |
| CCOC(=O)C1=C(COCCN)NC(C)=C(C(=O)OC)C1c1ccccc1Cl (stereo not drawn) [amlodipine, 3-O-ethyl 5-O-methyl 2-(2-aminoethoxymethyl)-4-(2-chlorophenyl)-6-methyl-1,4-dihydropyridine-3,5-dicarboxylate] | 24 |
| CC(C)(C)c1ccc(CN2CCN(C(c3ccccc3)c3ccc(Cl)cc3)CC2)cc1 (stereo not drawn) [buclizine, 1-[(4-tert-butylphenyl)methyl]-4-[(4-chlorophenyl)-phenylmethyl]piperazine] | 16 |
| COc1ccccc1OCCNCC(O)COc1cccc2[nH]c3ccccc3c12 (stereo not drawn) [carvedilol, 1-(9H-carbazol-4-yloxy)-3-[2-(2-methoxyphenoxy)ethylamino]propan-2-ol] | 34.7 |
| CN(C)CCCN1c2ccccc2Sc2ccc(Cl)cc21 [chlorpromazine, 3-(2-chlorophenothiazin-10-yl)-N,N-dimethylpropan-1-amine] | 9.7 |
| CN(C)CCC=C1c2ccccc2C=Cc2ccccc21 [cyclobenzaprine, N,N-dimethyl-3-(2-tricyclo[9.4.0.03,8]pentadeca-1(15),3,5,7,9,11,13-heptaenylidene)propan-1-amine] | 13.2 |
| CCC(=O)O[C@@H](O[P@](=O)(CCCCc1ccccc1)CC(=O)N1C[C@H](C2CCCCC2)C[C@H]1C(=O)O)C(C)C [fosinopril, (2S,4S)-4-cyclohexyl-1-[2-[(2-methyl-1-propanoyloxypropoxy)-(4-phenylbutyl)phosphoryl]acetyl]pyrrolidine-2-carboxylic acid] | 0.849 |
| O=C(O)[C@@H]1C[C@@H](C2CCCCC2)CN1C(=O)CP(=O)(O)CCCCc1ccccc1 [fosinoprilat, (2S,4S)-4-cyclohexyl-1-{2-[hydroxy(4-phenylbutyl)phosphoryl]acetyl}pyrrolidine-2-carboxylic acid] | 39.9 |
| C[C@]12CC[C@@H]3c4ccc(O)cc4C[C@@H](CCCCCCCCC[S+]([O-])CCCC(F)(F)C(F)(F)F)[C@H]3[C@@H]1CC[C@@H]2O (stereo partly drawn) [fulvestrant, (7R,8R,9S,13S,14S,17S)-13-methyl-7-[9-(4,4,5,5,5-pentafluoropentylsulfinyl)nonyl]-6,7,8,9,11,12,14,15,16,17-decahydrocyclopenta[a]phenanthrene-3,17-diol] | 18.5 |
| CN(CCCN1c2ccccc2CCc2ccccc21)CC(=O)c1ccc(Cl)cc1 [lofrepramine, 1-(4-chlorophenyl)-2-[3-(5,6-dihydrobenzo[b][1]benzazepin-11-yl)propyl-methylamino]ethanone] | 41.7 |
| CCOC(=O)N1CCC(=C2c3ccc(Cl)cc3CCc3cccnc32)CC1 [loratadine, ethyl 4-{13-chloro-4-azatricyclo [9.4.0.03, 8]pentadeca1(11),3(8), 4,6,12,14-hexaen-2-ylidene}piperidine-1-carboxylate] | 21.8 |
| C1CCC(C(CC2CCCCN2)C2CCCCC2)CC1 (stereo not drawn) [perhexiline, 2-(2,2-dicyclohexylethyl) piperidine] | 31.1 |
| CCN(CC)C(C)CN1c2ccccc2Sc2ccccc21 (stereo not drawn) [profenamine, N,N-diethyl-1-phenothiazin-10-ylpropan-2-amine] | 40.9 |
| CC(C)NCC(O)COc1cccc2ccccc12 (stereo not drawn) [propranolol, 1-(naphthalen-1-yloxy)-3-[(propan-2-yl)amino] propan-2-ol] | 45.8 |
| O=C(c1ccc(OCCN2CCCCC2)cc1)c1c(-c2ccc(O)cc2)sc2cc(O)ccc12 [raloxifene, [6-hydroxy-2-(4-hydroxyphenyl)-1-benzothiophen-3-yl]-[4-(2-piperidin-1-ylethoxy)phenyl]methanone] | 50.6 |
| NCC[C@H](Oc1ccc(C(F)(F)F)cc1)c1ccccc1 [seproxitine, (3S)-3-phenyl-3-[4-(trifluoromethyl)phenoxy]propan-1-amine] | 20.9 |
| CC/C(=C(\c1ccccc1)c1ccc(OCCN(C)C)cc1)c1ccccc1 [tamoxifen] | 20.1 |
